Data: patent US12077503B2, “Substituted cyclic amides and their use as herbicides” (FMC CORPORATION, priority 2015, dated 2024)

Key:
Format in all cases: in vivo
[1] = tested on: barnyardgrass (Echinochloa crus-galli); assay: Test A preemergence; conditions: Echinochloa crus-galli, pre-emergence, 240 h
Procedure, shortened: (§1)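 Compounds were formulated in a non-phytotoxic solvent mixture with surfactant and applied as a preemergence directed soil spray after seeding, or sprayed postemergence over plants 2 to 10 cm tall at the one- to two-leaf stage. Evaluation after about 10 d compared treated with untreated controls, using a scale from 0 (no effect) to 100 (complete control).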

[2] = tested on: ryegrass, Italian (Italian ryegrass, Lolium multiflorum); assay: Test A preemergence; conditions: Lolium multiflorum, pre-emergence, 240 h
Procedure, shortened: as §1

[3] = tested on: pigweed (Amaranthus retroflexus); assay: Test A preemergence; conditions: Amaranthus retroflexus, pre-emergence, 240 h
[4] = tested on: giant foxtail (Setaria faberii); assay: Test A preemergence; conditions: Setaria faberi, pre-emergence, 240 h
Procedure, shortened: as §1

[5] = tested on: ragweed (common ragweed, Ambrosia elatior); assay: Test A preemergence; conditions: Ambrosia artemisiifolia, pre-emergence, 240 h
Procedure, shortened: as §1

[6] = tested on: Kochia (Kochia scoparia); assay: Test A preemergence; conditions: Bassia scoparia, pre-emergence, 240 h
Procedure, shortened: as §1

[7] = tested on: barnyardgrass (Echinochloa crus-galli); assay: Test A postemergence; conditions: Echinochloa crus-galli, post-emergence, 240 h, 125 g ai/ha, postemergence, visual injury rating after approximately 10 d; read-out: Barnyardgrass plant response rating (0 to 100 scale, 0 no effect, 100 complete control)
Procedure, shortened: as §1

[8] = tested on: corn (Zea mays); assay: Test A postemergence; conditions: Zea mays, post-emergence, 240 h, 125 g ai/ha, postemergence, visual injury rating after approximately 10 d; read-out: Corn plant response rating (0 to 100 scale, 0 no effect, 100 complete control)
Procedure, shortened: as §1

[9] = tested on: Galium (catchweed bedstraw, Galium aparine); assay: Test A postemergence; conditions: Galium, post-emergence, 240 h, 125 g ai/ha, postemergence, visual injury rating after approximately 10 d; read-out: Galium plant response rating (0 to 100 scale, 0 no effect, 100 complete control)
Procedure, shortened: as §1

[10] = tested on: ryegrass, Italian (Italian ryegrass, Lolium multiflorum); assay: Test A postemergence; conditions: Lolium multiflorum, post-emergence, 240 h, 125 g ai/ha, postemergence, visual injury rating after approximately 10 d; read-out: Ryegrass, Italian plant response rating (0 to 100 scale, 0 no effect, 100 complete control)
Procedure, shortened: as §1

[11] = tested on: pigweed (Amaranthus retroflexus); assay: Test A postemergence; conditions: Amaranthus retroflexus, post-emergence, 240 h, 125 g ai/ha, postemergence, visual injury rating after approximately 10 d; read-out: Pigweed plant response rating (0 to 100 scale, 0 no effect, 100 complete control)
Procedure, shortened: as §1

[12] = tested on: giant foxtail (Setaria faberii); assay: Test A postemergence; conditions: Setaria faberi, post-emergence, 240 h, 125 g ai/ha, postemergence, visual injury rating after approximately 10 d; read-out: Foxtail, Giant plant response rating (0 to 100 scale, 0 no effect, 100 complete control)
Procedure, shortened: as §1

[13] = tested on: ragweed (common ragweed, Ambrosia elatior); assay: Test A postemergence; conditions: Ambrosia artemisiifolia, post-emergence, 240 h, 125 g ai/ha, postemergence, visual injury rating after approximately 10 d; read-out: Ragweed plant response rating (0 to 100 scale, 0 no effect, 100 complete control)
Procedure, shortened: as §1

[14] = tested on: wheat (Triticum aestivum); assay: Test A postemergence; conditions: Triticum aestivum, post-emergence, 240 h, 125 g ai/ha, postemergence, visual injury rating after approximately 10 d; read-out: Wheat plant response rating (0 to 100 scale, 0 no effect, 100 complete control)
Procedure, shortened: as §1

[15] = tested on: blackgrass (Alopecurus myosuroides); assay: Test A postemergence; conditions: Alopecurus myosuroides, post-emergence, 240 h, 125 g ai/ha, postemergence, visual injury rating after approximately 10 d; read-out: Blackgrass plant response rating (0 to 100 scale, 0 no effect, 100 complete control)
Procedure, shortened: as §1

[16] = tested on: Kochia (Kochia scoparia); assay: Test A postemergence; conditions: Bassia scoparia, post-emergence, 240 h, 125 g ai/ha, postemergence, visual injury rating after approximately 10 d; read-out: Kochia plant response rating (0 to 100 scale, 0 no effect, 100 complete control)
Procedure, shortened: as §1

## Cc1c(F)ccc([C@H]2CN(C)C(=O)[C@@H]2C(=O)Nc2ccc(F)c(F)c2F)c1F [Compound 836]
[1]; 125 g ai/ha, preemergence, 0 to 100 scale where 0 is no effect and 100 is complete control, read-out: Barnyardgrass plant response rating
  pest or weed control at 125 g/ha: 90%
[1]; 500 g ai/ha, Preemergence, visual injury vs untreated controls after approximately 10 d, read-out: Barnyardgrass plant response rating (0 to 100 scale where 0 is no effect and 100 is complete control)
  pest or weed control at 500 g/ha: 90%
[2]; 125 g ai/ha, preemergence, 0 to 100 scale where 0 is no effect and 100 is complete control, read-out: Ryegrass, Italian plant response rating
  pest or weed control at 125 g/ha: 90%
[2]; 500 g ai/ha, Preemergence, visual injury vs untreated controls after approximately 10 d, read-out: Ryegrass, Italian plant response rating (0 to 100 scale where 0 is no effect and 100 is complete control)
  pest or weed control at 500 g/ha: 80%
[3]; 125 g ai/ha, preemergence, 0 to 100 scale where 0 is no effect and 100 is complete control, read-out: Pigweed plant response rating
  pest or weed control at 125 g/ha: 30%
[3]; 500 g ai/ha, Preemergence, visual injury vs untreated controls after approximately 10 d, read-out: Pigweed plant response rating (0 to 100 scale where 0 is no effect and 100 is complete control)
  pest or weed control at 500 g/ha: 60%
[4]; 125 g ai/ha, preemergence, 0 to 100 scale where 0 is no effect and 100 is complete control, read-out: Foxtail, Giant plant response rating
  pest or weed control at 125 g/ha: 90%
[4]; 500 g ai/ha, Preemergence, visual injury vs untreated controls after approximately 10 d, read-out: Foxtail, Giant plant response rating (0 to 100 scale where 0 is no effect and 100 is complete control)
  pest or weed control at 500 g/ha: 90%
[5]; 125 g ai/ha, preemergence, 0 to 100 scale where 0 is no effect and 100 is complete control, read-out: Ragweed plant response rating
  pest or weed control at 125 g/ha: 0%
[5]; 500 g ai/ha, Preemergence, visual injury vs untreated controls after approximately 10 d, read-out: Ragweed plant response rating (0 to 100 scale where 0 is no effect and 100 is complete control)
  pest or weed control at 500 g/ha: 0%
[6]; 125 g ai/ha, preemergence, 0 to 100 scale where 0 is no effect and 100 is complete control, read-out: Kochia plant response rating
  pest or weed control at 125 g/ha: 90%
[6]; 500 g ai/ha, Preemergence, visual injury vs untreated controls after approximately 10 d, read-out: Kochia plant response rating (0 to 100 scale where 0 is no effect and 100 is complete control)
  pest or weed control at 500 g/ha: 90%
[7]
  pest or weed control at 125 g/ha: 100%
[8]
  plant injury at 125 g/ha: 70%
[9]
  pest or weed control at 125 g/ha: 50%
[10]
  pest or weed control at 125 g/ha: 60%
[11]
  pest or weed control at 125 g/ha: 30%
[12]
  pest or weed control at 125 g/ha: 90%
[13]
  pest or weed control at 125 g/ha: 0%
[14]
  plant injury at 125 g/ha: 40%
[15]
  pest or weed control at 125 g/ha: 70%
[16]
  pest or weed control at 125 g/ha: 50%
